Target: T1, AR protein (Homo sapiens, UniProt P10275, T878A)
T1 construct: The percent AR protein degradation induced by these compounds at various concentrations in LNCaP cells; host or cells: LNCaP
T1 sequence (P10275 1-920 T878A): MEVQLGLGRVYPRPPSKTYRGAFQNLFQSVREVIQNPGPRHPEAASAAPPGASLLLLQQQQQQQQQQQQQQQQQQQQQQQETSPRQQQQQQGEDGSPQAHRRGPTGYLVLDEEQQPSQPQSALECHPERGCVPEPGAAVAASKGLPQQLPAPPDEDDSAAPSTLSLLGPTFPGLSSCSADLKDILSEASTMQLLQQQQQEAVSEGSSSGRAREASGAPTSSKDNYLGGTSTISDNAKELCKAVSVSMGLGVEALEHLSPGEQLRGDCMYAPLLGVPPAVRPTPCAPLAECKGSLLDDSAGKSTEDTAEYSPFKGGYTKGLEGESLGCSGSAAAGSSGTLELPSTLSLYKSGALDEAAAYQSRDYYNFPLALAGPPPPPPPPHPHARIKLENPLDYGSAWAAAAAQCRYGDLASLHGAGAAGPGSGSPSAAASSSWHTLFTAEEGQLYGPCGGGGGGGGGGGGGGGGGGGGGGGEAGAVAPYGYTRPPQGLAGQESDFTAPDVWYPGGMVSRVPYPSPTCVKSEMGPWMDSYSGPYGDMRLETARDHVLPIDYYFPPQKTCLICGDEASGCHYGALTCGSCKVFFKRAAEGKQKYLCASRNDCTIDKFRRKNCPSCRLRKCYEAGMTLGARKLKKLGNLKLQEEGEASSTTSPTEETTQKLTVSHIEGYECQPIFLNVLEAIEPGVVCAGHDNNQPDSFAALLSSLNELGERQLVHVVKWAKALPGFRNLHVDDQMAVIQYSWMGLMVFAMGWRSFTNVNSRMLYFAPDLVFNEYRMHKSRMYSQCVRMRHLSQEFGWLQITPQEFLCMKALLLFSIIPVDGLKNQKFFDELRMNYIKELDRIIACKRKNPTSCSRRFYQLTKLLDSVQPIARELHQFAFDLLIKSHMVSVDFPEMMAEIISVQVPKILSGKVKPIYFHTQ
Test: AR protein degradation in LNCaP cells (Western blotting)
Type: cell-based
Details: treatment time 6 h, average of three independent experiments
Experimental: Cell lines and Cell Culture: All the LNCaP, VCaP and 22RV1 cells used were purchased from American Type Culture Collection (ATCC). […] All of the cells were supplemented with 10% fetal bovine serum (Invitrogen) at 37° C. in a humidified 5% CO2 incubator.
Western Blotting. Treated cells were lysed by RIPA buffer supplemented with protease and phosphatase inhibitors. […] Software ImageJ was used to quantify the percentage of AR degradation. The net protein bands and loading controls are calculated by deducting the background from the inverted band value. The final relative quantification values are the ratio of net band to net loading control.

[1] = LNCaP, 0.1 μM, read-out: % AR protein degradation in LNCaP Cells
[2] = LNCaP, 1 μM, read-out: % AR protein degradation in LNCaP Cells

SMILES | Dmax at 0.01 µM (LNCaP, 0.01 μM) | Dmax at 0.1 µM [1] | Dmax at 1 µM [2] | % AR protein degradation in LNCaP Cells (0.01 μM) | % AR protein degradation in LNCaP Cells (0.1 μM) | % AR protein degradation in LNCaP Cells (1 μM) | Dmax at 10 µM (LNCaP, 10 μM, read-out: % AR protein degradation in LNCaP Cells)
Cc1cc([C@H](C(=O)N2C[C@H](O)C[C@H]2C(=O)N[C@@H](CC(=O)NCCCCCCCCCNC(=O)c2ccc(N3C(=S)N(c4ccc(C#N)c(C(F)(F)F)c4)C(=O)C3(C)C)cc2F)c2ccc(-c3scnc3C)cc2)C(C)C)on1 [Compound 26, (2S,4R)—N—((S)-3-((9-(4-(3-(4-Cyano-3-(trifluoromethyl)phenyl)-5,5-dimethyl-4-oxo-2-thioxoimidazolidin-1-yl)-2-fluorobenzamido)nonyl)amino)-1-(4-(4-methylthiazol-5-yl)phenyl)-3-oxopropyl)-4-hydroxy-1-((R)-3-methyl-2-(3-methylisoxazol-5-yl)butanoyl)pyrrolidine-2-carboxamide] | 11% | 50% | 87% | – | – | – | –
Cc1cc([C@H](C(=O)N2C[C@H](O)C[C@H]2C(=O)N[C@@H](CC(=O)N2CCC(N3CCC(C#Cc4ccc(N5C(=S)N(c6cnc(C#N)c(C(F)(F)F)c6)C(=O)C56CCC6)cc4)CC3)CC2)c2ccc(-c3scnc3C)cc2)C(C)C)on1 [Compound 30, (2S,4R)—N—((S)-3-(4-((4-(7-(6-Cyano-5-(trifluoromethyl)pyridin-3-yl)-8-oxo-6-thioxo-5,7-diazaspiro[3.4]octan-5-yl)phenyl)ethynyl)-[1,4′-bipiperidin]-1′-yl)-1-(4-(4-methylthiazol-5-yl)phenyl)-3-oxopropyl)-4-hydroxy-1-((R)-3-methyl-2-(3-methylisoxazol-5-yl)butanoyl)pyrrolidine-2-carboxamide] | 38% | 80% | 95% | – | – | – | –
CC(=O)N[C@H](C(=O)N1C[C@H](O)C[C@H]1C(=O)N[C@@H](CC(=O)N1CCC(N2CCC(C#Cc3ccc(C(=O)N[C@H]4C(C)(C)[C@H](Oc5ccc(C#N)c(Cl)c5)C4(C)C)cc3)CC2)CC1)c1ccc(-c2scnc2C)cc1)C(C)(C)C [Compound 36, (2S,4R)-1-((S)-2-Acetamido-3,3-dimethylbutanoyl)-N—((S)-3-(4-((4-(((1r,3r)-3-(3-chloro-4-cyanophenoxy)-2,2,4,4-tetramethylcyclobutyl)carbamoyl)phenyl)ethynyl)-[1,4′-bipiperidin]-1′-yl)-1-(4-(4-methylthiazol-5-yl)phenyl)-3-oxopropyl)-4-hydroxypyrrolidine-2-carboxamide] | – | – | – | 39% | 77% | 99% | –
Cc1ncsc1-c1ccc(CNC(=O)C2C[C@@H](O)CN2C(=O)[C@@H](NC(=O)CCCCCCCCCNC(=O)c2ccc(N3C(=S)N(c4ccc(C#N)c(C(F)(F)F)c4)C(=O)C3(C)C)cc2F)C(C)(C)C)cc1 (stereo partly drawn) [Compound 15, (4R)-1-((S)-2-(10-(4-(3-(4-Cyano-3-(trifluoromethyl)phenyl)-5,5-dimethyl-4-oxo-2-thioxoimidazolidin-1-yl)-2-fluorobenzamido)decanamido)-3,3-dimethylbutanoyl)-4-hydroxy-N-(4-(4-methylthiazol-5-yl)benzyl)pyrrolidine-2-carboxamide] | 10% | 48% | 88% | – | – | – | –
Cc1ncsc1-c1ccc(CNC(=O)C2C[C@@H](O)CN2C(=O)[C@@H](NC(=O)CCCCCNC(=O)c2ccc(N3C(=S)N(c4ccc(C#N)c(C(F)(F)F)c4)C(=O)C3(C)C)cc2F)C(C)(C)C)cc1 (stereo partly drawn) [Compound 11, (4R)-1-((S)-2-(6-(4-(3-(4-Cyano-3-(trifluoromethyl)phenyl)-5,5-dimethyl-4-oxo-2-thioxoimidazolidin-1-yl)-2-fluorobenzamido)hexanamido)-3,3-dimethylbutanoyl)-4-hydroxy-N-(4-(4-methylthiazol-5-yl)benzyl)pyrrolidine-2-carboxamide] | – | 11% | 25% | – | – | – | 29%

From US20220081435A1, “ANDROGEN RECEPTOR PROTEIN DEGRADERS” (THE REGENTS OF THE UNIVERSITY OF MICHIGAN, priority 2019, published 2022)
